Test results taken from publication PMC8448719 (Archives of Toxicology, 2021).
Where two headings read alike, the source gives them in different places.

What was measured:
[1] = Metabolism of BaP in incubations with rat liver microsomes; assay type: in vitro ADME, rat
Method: (§1) All in vitro Vmax values were scaled to microsomal or S9 protein content of rat liver using the following scaling factors: 45 mg microsomal protein per gram liver tissue and 125 mg S9 protein per gram liver tissue (Houston and Galetin [2008]). The scaled Vmax values were subsequently converted to Vmax in nmol/min/liver using the liver weight of 9.1 g, calculated from the body weight and fractional liver weight presented in Table 1. The Km in vitro was assumed equal to the Km in vivo.
(§2) The incubation mixtures consisted of (final concentrations) 0.1 mM potassium phosphate (pH 7.4), 5 mM MgCl2, 0.5 mg/ml rat liver microsomes or 2 mg/ml rat lung microsomes, and 1 mM NADPH in conical glass vials. […] The mixtures were incubated in a shaking water bath at 37 °C for 30 min. 20 µl ice-cold 10% (v/v) perchloric acid (HClO4) was added to terminate the reactions and the mixtures were put on ice for at least 15 min. Di-isopropyl ether (DIPE) was used to extract BaP and its metabolites from the incubation mixture. To this end, 1 ml DIPE was added to each incubation mixture, the tubes vortexed for 20 s and the upper layer was collected. Extraction was performed three times. Remaining DIPE was removed by evaporation under a stream of N2. Subsequently, extracts were re-dissolved in 100 µl methanol and transferred to UPLC vials for analysis.
The UPLC was equipped with a Photodiode Array (PDA) detector, recording wavelengths between 190 and 400 nm and a Phenomenex C18 column (Phenomenex, Torrance, California, United States). The column temperature was kept at 40 °C and the auto-sampler at 4 °C during analysis. The mobile phase consisted of Nanopure water containing 0.1% (v/v) trifluoroacetic acid (TFA) (A) and acetonitrile containing 0.1% (v/v) TFA (B) at a flow rate of 0.3 ml/min. The total run time was 23 min and 30 s, starting with 10% B for 30 s, increasing to 100% B in 15 min, maintaining this condition for 3 min before returning to the initial conditions of 10% B in 30 s. 10 µl of sample was injected per run. Under these conditions the metabolite 3-OHBaP, detected at 258 nm, eluted at 10.16 min. For the glucuronidated and sulfonated metabolite of 3-OHBaP, retention time and detection wavelength were 7.5 min, 303.3 nm and 7.4 min, 301 nm, respectively. The amounts of 3-OHBaP in the microsomal incubation sample and of glucuronidated and sulfated 3-OHBaP in the S9 incubation samples were quantified by integrating peak areas at their respective wavelengths using a calibration curve prepared with commercially available 3-OHBaP. To obtain the Vmax and Km the in vitro data for the substrate concentration-dependent rate of metabolite formation were fitted to the Michaelis–Menten equation using Graphpad Prism 9.0.1 for Windows (GraphPad Software, San Diego, California, USA).

[2] = Glucuronidation of 3-OHBaP in incubations with rat liver S9; assay type: in vitro ADME
Method: as §1
(§3) Incubations with rat liver and lung S9 fractions were optimized to establish linearity over time and protein concentrations for the rate of glucuronidation and sulfation of 3-OHBaP. […]
Kinetics for 3-OHBaP glucuronidation, were quantified using incubations with pooled liver S9 fractions from male SD rats. […]
(§4) All incubation mixtures were pre-incubated for 1 min, after which the reaction was initiated by addition of 3-OHBaP in final concentrations ranging from 0.01 to 50 µM (glucuronidation) or 0.01–100 µM (sulfation) added from 100 times concentrated stock solutions in DMSO to reach the final volume of 200 µl (1% DMSO v/v). […] The supernatant was collected and analysed by Ultra Performance Liquid Chromatography (UPLC). […]

[3] = Sulfation of 3-OHBaP in incubations with rat liver S9; assay type: in vitro ADME; settings: male, SD, pooled rat liver S9, pH 7.4
Method: as §1, §3
Hepatic sulfonation of 3-OHBaP was evaluated using pooled liver S9 fractions of male SD rats, in incubation mixtures with a final volume of 200 µl in conical glass vials containing (final concentrations) 0.1 mM Tris–HCl (pH 7.4), 0.1 mg/ml rat liver S9 and 0.2 mM PAPS.
as §4

[4] = PBK model prediction of 3-OHBaP blood concentrations in rat; settings: intravenous; Marie et al. (2010)
Description: The conceptual PBK model for BaP consisted of separate compartments for venous blood, arterial blood, fat tissue, liver tissue, lung tissue, rapidly and slowly perfused tissue, stomach and intestines. 3-OHBaP is highly lipophilic. To prevent 3-OHBaP from partitioning into the fat tissue in the model simulations, it was essential to include a blood protein compartment in the model to allow binding of 3-OHBaP to blood protein. The unbound fraction of 3-OHBaP in the blood compartment was represented by the fub, in vivo, calculated as described in “Translating in vitro concentration–response data into in vivo dose–response data using PBK modelling-based reverse dosimetry” section. The fraction of 3-OHBaP bound to protein in the blood protein compartment (fb, in vivo) was calculated as 1 minus the fub, in vivo. […] Clearance of 3-OHBaP was assumed to result from hepatic and pulmonary conjugation (Cohen [1990]; Cohen and Moore [1976]). […]
For oral exposure, stomach emptying and intestinal transfer of the parent compound were included. […] The Papp, in vivo was calculated using the following equation: log (Papp, in vivo) = 0.6836 × log (Papp, Caco−2) − 0.5579 (Sun et al. [2002]) and applied in the model as described before (Zhang et al. [2018]). […]

[5] = 3-OHBaP in rat blood, read-out: Cmax reported, cited from earlier work
ES-D3 cells = tested on: ES-D3 cells; set-up: method as in Kamelia et al. (2020); settings: without bioactivation; ref Kamelia et al. (2020); cited from earlier work
[6] = rat PBK model; ref Crowell et al. (2011); cited from earlier work
[7] = assay type: in vitro ADME; settings: rat, 30 min, pH 7.4
Method: as §2
The UPLC was equipped with a Photodiode Array (PDA) detector, recording wavelengths between 190 and 400 nm and a Phenomenex C18 column (Phenomenex, Torrance, California, United States). […] Under these conditions the metabolite 3-OHBaP, detected at 258 nm, eluted at 10.16 min. […] The amounts of 3-OHBaP in the microsomal incubation sample and of glucuronidated and sulfated 3-OHBaP in the S9 incubation samples were quantified by integrating peak areas at their respective wavelengths using a calibration curve prepared with commercially available 3-OHBaP. […]

F-344 rat = assay: In vivo reproductive toxicity of BaP (foetal survival), nasal inhalation; settings: inhalation expressed as oral dose equivalent, data of Archibong et al. (2002)
Method: Foetal survival, calculated as the fraction of live foetuses relative to the number of implantation sites reported in these studies, was taken as measure for in vivo reproductive toxicity. […] These oral dose equivalents in mg/kg bw were used for the comparison with model predicted dose–response data.
ED50 values were calculated for the predicted and reported dose–response data, using the non-linear regression with three parameters in Graphpad Prism version 9.0.1 for Windows (GraphPad Software, San Diego, California USA). The ED50 value was calculated for the fraction differentiated into beating cardiomyocytes for the predicted dose–response data. For the in vivo studies, foetus survival (number of live foetuses as fraction of total implantations) was used as response.

Caco-2 cells = settings: cited from earlier work
[8] = rat, in vivo; cited from earlier work
[9] = formation of the metabolite from BaP, rat liver microsomes

Structure (SMILES): O=C1C=Cc2ccc3c4c(ccc1c24)-c1ccccc1C3=O [B[a]P-1,6-quinone]
- Vmax [1, 9]: 22.2 ± 3.2 pmol/min/mg microsomal protein

Structure (SMILES): O=C1C=Cc2ccc3c4c(ccc1c24)C(=O)c1ccccc1-3 [B[a]P-3,6-quinone]
- Vmax [1, 9]: 3.0 ± 0.5 pmol/min/mg microsomal protein

Structure (SMILES): Oc1ccc2ccc3c4ccccc4cc4ccc1c2c43 [3-OHBaP, 3-hydroxybenzo[a]pyrene]
- Vmax [1, 9]: 162.2 ± 47.6 pmol/min/mg microsomal protein
- Concentration at which substrate inhibition occurred ([2]; glucuronidation): ≥ 50000 nM
- Km at 20 min ([2]; male, SD, pooled rat liver S9, pH 7.4, glucuronidation of 3-OHBaP): 10 µM
- Km at 70 min [3]: 17 µM
- Cmax reported relative to predicted Cmax (fold higher) [4]: 1.1 fold
- Cmax ([5]; intratracheal 10 mg/kg bw BaP, ref Moreau and Bouchard (2015)): 140 nM
- Cmax ([5]; intravenous 10 mg/kg bw BaP, ref Marie et al. (2010)): 720 nM
- Cmax ([5]; intravenous 10 mg/kg bw BaP, ref Moreau and Bouchard (2015)): 220 nM
- Cmax ([5]; oral 10 mg/kg bw BaP, ref Moreau and Bouchard (2015)): 100 nM
- Result in the EST (ES-D3 cells): induces developmental toxicity
- Tissue:blood partition coefficient, fat [6]: 401
- Tissue:blood partition coefficient, liver [6]: 12.24
- Tissue:blood partition coefficient, lung [6]: 12.24
- Tissue:blood partition coefficient, rapidly perfused tissue [6]: 12.24
- Tissue:blood partition coefficient, slowly perfused tissue [6]: 6.43

Structure (SMILES): c1ccc2c(c1)cc1ccc3cccc4ccc2c1c34 [BaP, benzo[a]pyrene]
- Vmax ([1]; rat, 30 min, pH 7.4): 0.16 nmol/min/mg microsomal protein
- Vmax scaled to the whole liver ([1]; rat, 30 min, pH 7.4): 4.1 µmol/min/liver
- Km at 30 min ([1]; rat, pH 7.4, Km): 34 µM
- Rate of 3-OHBaP formation ([7]; 200 µM): 0.81 pmol/min/mg protein
- Formation of 3-OHBaP in lung microsomes [7]: did not result in formation of detectable levels of 3-OHBaP
- ED50 derived from reported in vivo dose-response data (F-344 rat): 29 mg/kg bw per day
- Log Papp, Caco-2 (Caco-2 cells): -5.42
- Papp, Caco-2 (Caco-2 cells): 3.8 x1E-6 cm/sec
- Blood concentration in maternal versus foetal blood [8]: similar
